# Measurements from patent publication US20050107303A1, “Health feed” (priority 2001, published 2005).
# System: immunoglobulin A
# Test: IgA production by mid colon biopsy samples of cats fed the diets, measured by ELISA
# Type: in vivo, cat
# Description: The study was carried out using eight members of the cat colonic health panel, which were known to be in good (intestinal) health. Cats were wormed and vaccinated 6 months prior to the start of the trial. The cats underwent the following trial regime; [table] Both the control diet and the glutamine enriched diet provided 405 kCal/100 g. The control diet was a dry diet containing approximately 4% water. The control diet comprised the following ingredients (˜is approximately): The glutamine-supplemented diet comprised 1% dry weight by weight glutamine provided as L-glutamine. The glutamine was sprayed onto the external surface of the dry control product. Levels of immunoglobulin A production by mid colon biopsy samples were measured by enzyme linked immunosorbent assay (ELISA). IgA ELISA test was obtained from Bethyl and performed as described in provided protocol sheets. In short, 96 well microplates were taken and coated with 100 μl anti-canine IgA overnight at 4° C. After each step the plates were washed with ELISA wash (50 Mm) Tris, pH 8.0, 0.1M NaCl, 0.05% Tween 20). Unreacted sites were blocked with tris-buffered saline (TBS) containing 1% bovine serum albumin (BSA) for 30 minutes. […] Finally, the absorbence was read spectrophotometrically at 450 nm using an ELISA plate reader.
compound,measurement,setting,value
"NC(=O)CC[C@H](N)C(=O)O [Glutamine, L-glutamine]","IgA production by the colon, compared to the other diets","cats fed diets containing 1% glutamine, samples taken from below the transwell, P=0.048, GLM",significant increase
same,IgA production (ng/mg protein) Intestinal Sample,"healthy cats, diet with 1% dry w/w L-glutamine for 28 days, mid colon biopsy samples, letters (a)/(b) mark a significant difference",1003.1 ± 762.9 (b) ng/mg protein
